Data taken from patent publication US12458622B2, “Methods of treatment of coronavirus-induced inflammation conditions” (priority 2020, dated 2025).
Like-named read-outs stand apart in the source and are kept apart here.

Assays:
BV2 microglial cells = experiment: Aβ42 uptake, confocal microscopy and ELISA; assay type: cell-based; details: naive BV2 cells, 16 hours pretreatment then 2 hours with Aβ42, vs DMSO
Experimental: After incubation, the cells were labeled with a plasma membrane dye (PM, green) and imaged.

[1] = tested on: BV2 cells stably expressing CD33 (BV2-CD33WT); experiment: Aβ42 uptake, ELISA; assay type: cell-based; details: 16 hours pretreatment then 2 hours with Aβ42, vs DMSO
APP/PS1 mice = experiment: Recruitment of microglial cells around amyloid plaques; details: mouse, in vivo
[2] = tested on: HMC3 human microglia cells; experiment: MSD U-PLEX cytokine secretion induced by TNF-α; assay type: cell-based; details: TNF-α induced, 24 hr; for inhibition at 3 µM: Homo sapiens, HMC3
Experimental: Human microglial cell line HMC3 (CRL-3304) was purchased from ATCC (American Type Culture Collection). HMC3 cell line was cultured in DMEM medium with 10% FBS, 1% L-glutamine, and 1% penicillin/streptomycin. Cells were maintained in 37° C. incubator at 5% CO2.
HMC3 cells were resuspended, counted using the LUNA-II Automated Cell Counter, seeded in the 6-well plate (400 K cells/2 mL medium/well), and incubated overnight to allow cells to attach. The media and detached cells were removed next day. The cell layer was washed three times in PBS and once in serum- and phenolred-free DMEM (SPFM). […] The conditioned medium was collected and centrifuged at 1,000×RCF (g) for 5 min to pellet detached cells and large debris, which was subsequently passed through a 0.22 μm filter with PVDF membrane to remove smaller debris. Samples of the supernatant medium were put in a CoolRack (#07210041, Fisher Scientific) on dry ice for Snap-freezing and kept at −80° C. until use.
Meso-scale U-PLEX plates that detect a cytokine panel including IL-1β, IL-2, IL-4, IL-6, IL-8, IL-10, IFN-γ, TNF-α, and a chemokine panel including IP-10/CXCL10, MCP-1/CCL2, MIP-1α/CCL3, MIP-1P/CCL4, Eotaxin/CCL11, were used as per manufacture's protocol. 25 μL of the conditioned medium was used in each well of the MSD plates to detect the analytes. The plates were then analyzed on an MSD QuickPlex SQ120 instrument.
All the data were presented as mean±standard error from at least three times, each done in triplicate. The statistical significance between two groups was determined by Student's t test, whereas the comparisons of multiple groups were carried out by one-way ANOVA, followed by Bonferroni's post-test using GraphPad Prism 7 (GraphPad Software, Inc.). A probability value of * p<0.05 was considered to be significant.

pH of solution in saline = assay type: physicochemical; details: 25 mg in 25 ml of saline
Experimental: In some embodiments, the compounds of the invention are provided as part of a kit for infusion. The kit contains from about 25 mg to about 250 mg of the compound of Formula I or II in a volume of buffer or saline from about 25 ml to about 250 ml. The pH of saline or buffer pH ranges from about 5.8 to about 6.8. […] Alternatively, the buffer can be Ringer's lactate (pH 6.5). Alternatively yet, the buffer can be citrate buffer (pH 6.0).

Rat = details: cited from earlier work
Squirrel Monkeys = details: 6 months, cited from earlier work

SMILES: O=C(O)c1cc(=O)c2c(OCC(O)COc3cccc4oc(C(=O)O)cc(=O)c34)cccc2o1 [cromolyn]
- Aβ42 uptake (BV2 microglial cells): increased Aβ42 uptake
- Internalized Aβ42 [1]: increased levels of internalized Aβ42
- Recruitment of microglial cells around amyloid plaques (APP/PS1 mice): increased recruitment of microglial cells
- IFN-γ concentration ([2]; 0.3 μM): decreased
- IL-1β concentration ([2]; 0.3 μM): decreased
- IL-6 concentration ([2]; 0.3 μM): decreased
- IL-8 concentration ([2]; 0.3 μM): decreased
- inhibition at 3 µM ([2]; read-out: inhibition of IFN-γ): > 40%
- inhibition at 3 µM ([2]; read-out: inhibition of IL-1β): > 40%
- inhibition at 3 µM ([2]; read-out: inhibition of IL-6): > 40%
- inhibition at 3 µM ([2]; read-out: inhibition of IL-8): 25.8%
- pH (pH of solution in saline): 6.8
- LD50 Value (Rat; IP): >4 gm/kg
- LD50 Value (Rat; IV): >4 gm/kg
- LD50 Value (Rat; Oral): >11 gm/kg
- LD50 Value (Rat; SC): 6 gm/kg
- Ill health, general toxicity, or nasal irritation (Squirrel Monkeys; 2% cromolyn 0, 2, 6, 12 mg/day): No signs of ill health,
- Ill health, general toxicity, or nasal irritation (Squirrel Monkeys; 4% cromolyn 0, 5, 16, 32 mg/day): No signs of ill health,
